Here are results for 16 compounds from ChEMBL document CHEMBL5375973, “Design and Synthesis of Novel Near-Infrared Fluorescence Probes Based on an Open Conformation of a Cytochrome P450 1B1 Complex for Molecular Imaging of Colorectal Tumors” (J Med Chem, 2023).

For series [1], the target named is T1, Cytochrome P450 1A2 (Homo sapiens, UniProt P05177).
T1 sequence (P05177 whole entry): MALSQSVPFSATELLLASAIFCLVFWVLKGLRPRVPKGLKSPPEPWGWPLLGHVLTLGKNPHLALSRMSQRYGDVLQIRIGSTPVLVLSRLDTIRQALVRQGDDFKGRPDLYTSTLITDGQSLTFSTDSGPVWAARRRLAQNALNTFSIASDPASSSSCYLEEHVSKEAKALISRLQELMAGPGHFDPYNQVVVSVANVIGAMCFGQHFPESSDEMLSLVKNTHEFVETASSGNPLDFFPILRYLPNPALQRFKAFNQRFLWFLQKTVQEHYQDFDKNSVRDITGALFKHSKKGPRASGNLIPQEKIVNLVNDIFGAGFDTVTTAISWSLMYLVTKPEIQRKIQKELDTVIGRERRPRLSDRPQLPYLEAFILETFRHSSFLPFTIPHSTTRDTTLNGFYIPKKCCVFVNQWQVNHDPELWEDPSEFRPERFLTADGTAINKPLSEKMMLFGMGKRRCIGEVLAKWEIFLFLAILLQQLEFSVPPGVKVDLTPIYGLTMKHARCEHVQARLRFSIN
Nature of the series: Inhibition of recombinant CYP1A2 (unknown origin) using 7-ethoxyresorufin as substrate preincubated for 5 mins followed by NADPH addition incubated for 50 mins by EROD assay. The format is ADME.

Series [2] has as its target T2, Cytochrome P450 1B1 (Homo sapiens, UniProt Q16678).
T2 sequence (Q16678 whole entry): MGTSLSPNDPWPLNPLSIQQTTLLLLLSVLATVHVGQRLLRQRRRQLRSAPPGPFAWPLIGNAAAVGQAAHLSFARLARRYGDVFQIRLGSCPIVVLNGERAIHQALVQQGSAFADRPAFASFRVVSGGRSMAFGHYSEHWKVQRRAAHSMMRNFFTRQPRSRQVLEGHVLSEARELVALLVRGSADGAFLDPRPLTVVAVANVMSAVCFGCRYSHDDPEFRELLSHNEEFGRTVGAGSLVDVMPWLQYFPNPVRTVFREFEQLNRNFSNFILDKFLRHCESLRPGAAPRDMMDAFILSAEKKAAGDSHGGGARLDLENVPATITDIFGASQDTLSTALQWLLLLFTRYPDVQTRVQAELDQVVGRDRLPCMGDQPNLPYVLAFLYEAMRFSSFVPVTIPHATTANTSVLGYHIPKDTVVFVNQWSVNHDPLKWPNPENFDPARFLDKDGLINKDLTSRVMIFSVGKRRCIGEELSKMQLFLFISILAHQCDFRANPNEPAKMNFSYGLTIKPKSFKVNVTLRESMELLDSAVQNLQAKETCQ
The series is described as follows: Binding affinity to CYP1B1 in human HCT-15 cells assessed as apparent dissociation constant incubated for 1 hr by flow cytometry analysis. It counts as ADME, cell-based. To be noted: read-out: Kd(app). (In flow cytometry, cells or beads pass a laser one at a time.)

In series [3] the test system is HCT-15. Nature of the series: Cytotoxicity against human HCT-15 cells assessed as cell viability at 10 uM incubated for 24 hrs by MTT assay. It counts as functional. To be noted: read-out: Activity. A general note: Tetrazolium dyes change colour on reduction, which living cells bring about.
The subject of series [4] is HFF-1. The series is described as follows: Cytotoxicity against human HFF-1 cells at 1 to 10 uM incubated for 24 hrs by MTT assay. It counts as toxicity, cell-based. To be noted: hff-1, 24 h, dose 1-10 µM.
Series [5] is described as follows: Stability of the compound assessed as drug degradation observed after 24 hrs by HPLC analysis. It counts as physicochemical.
For series [6], the target named is T2, Cytochrome P450 1B1. The series is described as follows: Inhibition of recombinant CYP1B1 (unknown origin) using 7-ethoxyresorufin as substrate preincubated for 5 mins followed by NADPH addition incubated for 35 mins by EROD assay. The format is ADME.
Series [7] concerns the target T3, Cytochrome P450 1A1 (Homo sapiens, UniProt P04798).
T3 sequence (P04798 whole entry): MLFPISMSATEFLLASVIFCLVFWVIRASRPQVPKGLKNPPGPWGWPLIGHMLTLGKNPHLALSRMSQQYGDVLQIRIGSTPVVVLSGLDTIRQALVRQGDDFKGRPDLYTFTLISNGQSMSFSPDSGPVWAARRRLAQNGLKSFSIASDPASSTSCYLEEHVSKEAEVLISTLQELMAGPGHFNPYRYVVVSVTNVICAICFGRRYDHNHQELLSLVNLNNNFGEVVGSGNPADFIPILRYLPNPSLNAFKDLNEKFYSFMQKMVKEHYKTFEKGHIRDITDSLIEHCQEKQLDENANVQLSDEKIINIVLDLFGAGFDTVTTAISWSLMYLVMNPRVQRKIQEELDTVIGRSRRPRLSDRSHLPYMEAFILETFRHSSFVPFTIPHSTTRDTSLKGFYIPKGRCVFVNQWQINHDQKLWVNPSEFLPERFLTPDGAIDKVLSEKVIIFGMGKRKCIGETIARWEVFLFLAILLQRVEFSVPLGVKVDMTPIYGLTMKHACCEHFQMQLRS
Nature of the series: Inhibition of recombinant CYP1A1 (unknown origin) using 7-ethoxyresorufin as substrate preincubated for 5 mins followed by NADPH addition incubated for 15 mins by EROD assay. The format is ADME.

Each structure is given as a SMILES string.

As a reminder, the IC50 is the concentration that gives 50% inhibition. Take `COc1ccc(OC)c2c1c(OC)cc1c(=O)cc(-c3cc(F)cc(NC(=O)CCCCCCN)c3)oc12`: the IC50 in series [1] was 1460 nM.

Regarding `CCN1/C(=C/C=C/C=C/C2=[N+](CCCCCC(=O)NCCOCCOCCOCC(=O)Nc3cc(F)cc(-c4cc(=O)c5cc(OC)c6c(OC)ccc(OC)c6c5o4)c3)c3ccc4c(S(=O)(=O)[O-])cc(S(=O)(=O)O)cc4c3C2(C)C)C(C)(C)c2c1ccc1c(S(=O)(=O)O)cc(S(=O)(=O)O)cc21`, in series [2], the Kd amounted to 168 nM. Also, in series [3], the viability at 10 µM is more than 80%. Also, the Activity entry in series [4] was “Non-Toxic”. Besides, in series [5], the Stability result was “Stable”.

In the case of `COc1ccc(OC)c2c1c(OC)cc1c(=O)cc(-c3cc(N)cc(F)c3)oc12`, the concentration for half-maximal inhibition (IC50) in series [6] is 2.03 nM. On the same count and under the same terms, the result for `COc1ccc(OC)c2c1c(OC)cc1c(=O)cc(-c3cc(O)cc(F)c3)oc12` reads 95 nM.

Take `COc1ccc(OC)c2c1c(OC)cc1c(=O)cc(-c3cc(F)cc(NC(=O)COCCOCCOCCN)c3)oc12`: the half-maximal inhibitory concentration (IC50) in series [1] is more than 2000 nM.

For the compound `COc1ccc(OC)c2c1c(OC)cc1c(=O)cc(-c3ccc(O)c(F)c3)oc12`, in series [6], the IC50 was found to be 113 nM. Regarding `CCN1/C(=C/C=C/C=C/C2=[N+](CCCCCC(=O)NCCCCCCCCC(=O)Nc3cc(F)cc(-c4cc(=O)c5cc(OC)c6c(OC)ccc(OC)c6c5o4)c3)c3ccc4c(S(=O)(=O)[O-])cc(S(=O)(=O)O)cc4c3C2(C)C)C(C)(C)c2c1ccc1c(S(=O)(=O)O)cc(S(=O)(=O)O)cc21`, the Kd in series [2] was found to be 213 nM. In addition, in series [3], the viability at 10 µM is more than 80%. In series [4], the Activity entry is given as “Non-Toxic”. The Stability result in series [5] is “Stable”.

As for `COc1ccc(OC)c2c1c(OC)cc1c(=O)cc(-c3ccc(N)c(F)c3)oc12`, in series [6], the IC50 was 2.47 nM. `COc1ccc(OC)c2c1c(OC)cc1c(=O)cc(-c3cc(F)cc(OCCOCCN)c3)oc12`: the IC50 in series [1] was determined as 525 nM. On the same count and under the same terms, the result for `COc1ccc(OC)c2c1c(OC)cc1c(=O)cc(-c3cc(F)cc(NC(=O)CCCCCCCCN)c3)oc12` reads more than 2000 nM. With `COc1ccc(OC)c2c1c(OC)cc1c(=O)cc(-c3cc(F)cc(OCCOCCOCCOCCN)c3)oc12`, the IC50 in series [1] was more than 2000 nM. In the case of `COc1ccc(OC)c2c1c(OC)cc1c(=O)cc(-c3cc(F)cc(OCCOCCOCCN)c3)oc12`, the IC50 in series [1] stood at 1840 nM.

In the case of `COc1ccc(OC)c2c1c(OC)cc1c(=O)cc(-c3cc(F)cc(NC(=O)COCCN)c3)oc12`, the IC50 in series [1] was determined as 1600 nM. Still for that read-out and setting: the result for `COc1ccc(OC)c2c1c(OC)cc1c(=O)cc(-c3cc(F)cc(NC(=O)COCCOCCN)c3)oc12` reads more than 2000 nM. On the same count and under the same terms, the value for `COc1ccc(OC)c2c1c(OC)cc1c(=O)cc(-c3cc(F)cc(NC(=O)CCCCN)c3)oc12` was 514 nM. As to `O=c1cc(-c2ccccc2)oc2c1ccc1ccccc12` [ALPHA-NAPHTHOFLAVONE], the IC50 in series [7] stood at 37.8 nM.
